Where “and” joins values, the source holds several entries; their conditions need not be identical. Equal values may be shown once. Read-outs that look alike come from different tables or passages of the source.

Data on eleven molecules can be found in PMC7076352 (Pharmaceutics, 2020).

Data set [1] concerns CYP3A4. Briefly: in vitro. The note with it: for IC50: microsomes. The method, boiled down:
(§1)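 Probe substrates were pooled in a single microsomal incubation, with each substrate concentration optimized to keep metabolite formation linear. Metabolites were quantified against isotope-labelled internal standards: hydroxybupropion-[D6] (OHBUP-[D6]) and 5 nM 4′-hydroxydiclofenac-[^13C6] (OHDIC-[^13C6]).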

Data set [2] has as its system CYP2C9. Briefly: in vitro. Conditions: microsomes. The method, boiled down: as §1
Data set [3] has as its system CYP2D6. Briefly: in vitro. The note with it: for IC50: microsomes. The method, boiled down:
as §1

The subject of data set [4] is CYP2B6. Briefly: in vitro. Conditions: microsomes. The method, boiled down:
as §1

Data set [5] has as its system CYP450s. Briefly: In vitro cocktail CYP450 activity assay, isozyme not given. The data set is classed as in vitro ADME, SD rat. The procedure: (§2) (OHBUP-[D6]) and 5 nM 4′-hydroxydiclofenac-[^13C6] (OHDIC-[^13C6]) as internal standards (ISs).
In data set [6] the target is T1, CYP2E1 (Rattus norvegicus, UniProt P05182). The note with it: microsomes.
Data set [7] addresses T2, CYP1A2 (Rattus norvegicus, UniProt P04799).
T2 sequence (P04799 1-513): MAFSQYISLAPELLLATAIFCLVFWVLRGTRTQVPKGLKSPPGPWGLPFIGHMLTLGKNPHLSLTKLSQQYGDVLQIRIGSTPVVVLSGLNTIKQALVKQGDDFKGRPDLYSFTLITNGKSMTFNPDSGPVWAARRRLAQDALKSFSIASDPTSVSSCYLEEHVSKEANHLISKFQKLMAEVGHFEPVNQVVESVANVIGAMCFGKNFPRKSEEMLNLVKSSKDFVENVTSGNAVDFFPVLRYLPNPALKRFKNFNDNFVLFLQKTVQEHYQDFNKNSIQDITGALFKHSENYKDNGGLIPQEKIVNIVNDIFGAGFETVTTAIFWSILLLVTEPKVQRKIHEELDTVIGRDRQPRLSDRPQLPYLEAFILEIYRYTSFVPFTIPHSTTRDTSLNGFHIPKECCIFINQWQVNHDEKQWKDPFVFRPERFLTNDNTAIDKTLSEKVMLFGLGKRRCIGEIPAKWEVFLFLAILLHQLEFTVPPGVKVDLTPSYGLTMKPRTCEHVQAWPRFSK
In words: In vitro cocktail CYP450 activity assay in rat liver microsomes, CYP1A2 (phenacetin probe). The method, boiled down:
as §1
On the technique in general: Microsomes from liver hold many membrane-bound enzymes, among them those of drug oxidation.

Data set [8] relates to CYP2C19. Briefly: in vitro. Conditions: for IC50: microsomes. The method, boiled down:
as §1

Data set [9] has as its system CYP450s (isozyme not named). Briefly: In vitro cocktail CYP450 activity assay, isozyme not given. The note with it: Sprague-Dawley, rat, pH 7.4. The data set is classed as in vitro ADME, SD rat. The procedure:
as §2

The target of data set [10] is T1, CYP2E1. Conditions: IC50 CYP2E1, single components; RLM 0.2 mg/mL, 15 min, triplicate, mean ± SD.
The subject of data set [11] is CYP2D6. The note with it: read-out: Reported Km; probe substrate DEX, CYP2D6, literature range ref 9; cited from earlier work.
Data set [12] deals with T2, CYP1A2. The note with it: cited from earlier work.
The test system of data set [13] is CYP3A4. Conditions: cited from earlier work.
Data set [14] concerns CYP2C19. The note with it: read-out: Reported Km; probe substrate OME, CYP2C19, literature range ref 9; cited from earlier work.
The test system of data set [15] is CYP2C9. Conditions: read-out: Reported IC50; positive inhibitor of CYP2C9, literature ref 17,18; cited from earlier work.
Data set [16] concerns CYP2B6. Conditions: positive inhibitor of CYP2B6, literature ref 12,13; read-out: Reported IC50; cited from earlier work.
Substrate in data set [17]: CCOc1ccc(NC(C)=O)cc1
In words: not read. The note with it: other: probe substrate, PHE to dEtPHE, CYP1A2, n = 3; pH 7.4; 37.0 °C.

T1 sequence (P05182 whole entry): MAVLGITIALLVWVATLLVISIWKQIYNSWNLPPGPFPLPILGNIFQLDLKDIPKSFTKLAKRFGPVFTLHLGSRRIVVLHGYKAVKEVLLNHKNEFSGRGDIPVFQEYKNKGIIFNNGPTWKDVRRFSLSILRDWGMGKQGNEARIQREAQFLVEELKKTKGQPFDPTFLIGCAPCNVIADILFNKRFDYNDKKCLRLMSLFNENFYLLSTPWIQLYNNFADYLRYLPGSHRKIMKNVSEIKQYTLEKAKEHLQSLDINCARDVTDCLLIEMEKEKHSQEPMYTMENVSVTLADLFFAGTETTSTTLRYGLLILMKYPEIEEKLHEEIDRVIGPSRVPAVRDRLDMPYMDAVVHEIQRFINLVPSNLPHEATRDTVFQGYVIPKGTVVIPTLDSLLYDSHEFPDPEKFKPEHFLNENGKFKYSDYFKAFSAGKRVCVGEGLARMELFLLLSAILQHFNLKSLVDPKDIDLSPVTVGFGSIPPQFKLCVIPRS

In general, IC50 refers to the point on the concentration scale where inhibition reaches its midpoint. As to `O=c1c(O[C@@H]2O[C@H](CO)[C@@H](O)[C@H](O)[C@H]2O)c(-c2ccc(O)cc2)oc2cc(O)c(O[C@@H]3O[C@H](CO)[C@@H](O)[C@H](O)[C@H]3O)c(O)c12` [A13, 6-hydroxykaempferol-3,6-di-O-glucoside], the IC50 is 58.5 ± 0.66 µM in data set [1]; 93 ± 2.56 µM in [2]; 37.1 ± 8.85 µM in data set [3]; 21 ± 2.31 µM in data set [4]; no more than 15 µM in [5]; 10.2 ± 0.65 µM in data set [6]. Moreover, the values for the 50% inhibitory concentration (IC50) in data set [7] (microsomes) and in data set [8] were 13.3 ± 2.27 µM and 48.9 ± 4.36 µM, respectively.

Regarding `O=c1c(O)c(-c2ccc(O)c(O)c2)oc2cc(O)cc(O)c12` [A16, quercetin], the IC50 in data set [1] (Sprague-Dawley, rat, pH 7.4) was […]; in [2] (Sprague-Dawley, rat, pH 7.4), 13.5 ± 2.41 µM; in [3] (Sprague-Dawley, rat, pH 7.4) it was 31.1 ± 3.91 µM; in data set [4] (Sprague-Dawley, rat, pH 7.4), 68.5 ± 9.88 µM; in [9], no more than 15 µM; in [10] it was 20.3 ± 4.13 µM. The molecule also registered a half-inhibitory concentration (IC50) in data set [8] (Sprague-Dawley, rat, pH 7.4) of 46.4 ± 7.05 µM.

The Km is the concentration of substrate that gives half-maximal velocity. Consider `COc1ccc2c(c1)[C@]13CCCC[C@@H]1[C@H](C2)N(C)CC3` [DEX, dextromethorphan, reference compound], for which the Km was 0.62 ± 0.08 µM in data set [3] (SD, rat, pH 7.4) and 0.44 to 8.5 µM in [11].

For `Cc1nc2c([nH]1)c(=O)n(C)c(=O)n2Cc1ccco1` [FUR, furafylline], the IC50 was 0.597 ± 0.0514 µM in data set [7] (Tested IC50); 1.3 µM and 1.76 to 13.9 µM in data set [12] (read-out: Reported IC50, positive inhibitor of CYP1A2, literature ref 9, 10,11).

In the case of `CC(=O)N1CCN(c2ccc(OCC3COC(Cn4ccnc4)(c4ccc(Cl)cc4Cl)O3)cc2)CC1` (stereo not shown) [KET, ketoconazole, reference compound], the IC50 is […] in data set [1] (Sprague-Dawley, rat, pH 7.4, Tested IC50) and […] in data set [13] (read-out: Reported IC50, positive inhibitor of CYP3A4, literature ref 9).

With `Cc1ncc2n1-c1ccc(Cl)cc1C(c1ccccc1F)=NC2` [MID, midazolam, reference compound], the Km in data set [1] (SD, rat, pH 7.4) was 11 ± 1.51 µM; in data set [13] (read-out: Reported Km, probe substrate MID, CYP3A4, literature range ref 9), 1 to 14 µM.

In the case of `COc1ccc2[nH]c([S+]([O-])Cc3ncc(C)c(OC)c3C)nc2c1` (stereo not shown) [OME, omeprazole, reference compound], the Michaelis constant (Km) in data set [14] was 17 to 26 µM. For the same molecule, in data set [8] (SD, rat, pooled rat liver microsomes, pH 7.4, probe omeprazole), the Km at 15 min was 7.8 ± 1.65 µM.

As for `CCOc1ccc(NC(C)=O)cc1` [PHE, phenacetin], the Km in [12] (read-out: Reported Km, probe substrate PHE, CYP1A2, literature range ref 9) was 1.7 to 152 µM.

For `Nc1ccc(S(=O)(=O)Nc2ccnn2-c2ccccc2)cc1` [SUL, sulfaphenazole, reference compound], the 50% inhibitory concentration (IC50) in data set [2] (Sprague-Dawley, rat, pH 7.4) was […]; in data set [15], […].

Turning to `S=P(N1CC1)(N1CC1)N1CC1` [TRI, triethylenethiophosphoramide, reference compound], the IC50 in data set [4] was 0.75 ± 0.0262 µM; in data set [16], 1.75 to 26 µM.

B1: CYP1A2 (Rattus norvegicus) (protein)
chain: MAFSQYISLAPELLLATAIFCLVFWVLRGTRTQVPKGLKSPPGPWGLPFIGHMLTLGKNPHLSLTKLSQQYGDVLQIRIGSTPVVVLSGLNTIKQALVKQGDDFKGRPDLYSFTLITNGKSMTFNPDSGPVWAARRRLAQDALKSFSIASDPTSVSSCYLEEHVSKEANHLISKFQKLMAEVGHFEPVNQVVESVANVIGAMCFGKNFPRKSEEMLNLVKSSKDFVENVTSGNAVDFFPVLRYLPNPALKRFKNFNDNFVLFLQKTVQEHYQDFNKNSIQDITGALFKHSENYKDNGGLIPQEKIVNIVNDIFGAGFETVTTAIFWSILLLVTEPKVQRKIHEELDTVIGRDRQPRLSDRPQLPYLEAFILEIYRYTSFVPFTIPHSTTRDTSLNGFHIPKECCIFINQWQVNHDEKQWKDPFVFRPERFLTNDNTAIDKTLSEKVMLFGLGKRRCIGEIPAKWEVFLFLAILLHQLEFTVPPGVKVDLTPSYGLTMKPRTCEHVQAWPRFSK
With B1, the Km in data set [17] is on record as 65.26 ± 14.35 µM.
